The test system of data set [1] is LTB4 receptor. Nature of the data set: TXB2 release from guinea pig eosinophils stimulated with LTB4 (LTB4 receptor antagonist activity). The format is cell-based. Particulars: 10^−3 M test compound (37.5 μl) added to 300 μl cell suspension, then 10^−7 M LTB4 (37.5 μl), 37° C. 15 min, positive control 100, negative control 0, N.D. = TXB2 concentration at measurement limit or less. Here is the method: The LTB4 receptor antagonist activity of the test compound was examined using, as an index, thromboxane B2 (TXB2) released when stimulating eosinophil of guinea pig with LTB4.
Based on the method described in Japanese Journal of Pharmacology, vol. 70, p. 337-345 (1996) etc., eosinophils of guinea pig were prepared. A cell suspension (300 μl, 1.25×10^6 cells/ml) was placed in a 5 ml polypropylene test tube and, after incubation at 37° C. for 5 min., 10^−3 M test compound (37.5 μl) dissolved in 0.1% DMSO aqueous solution was added and the cells were continuously cultured for 5 min. Then, 10^−7 M LTB4 (37.5 μl) was added to induce the reaction and the cells were incubated at 37° C. for 15 min. The reaction was quenched in ice water, and the culture was centrifuged at 4° C., 3000 rpm for 10 min. The obtained supernatant was prepared as a sample for TXB2 measurement, and preserved at −80° C. before use for the measurement. The quantitation of TXB2 was performed using a TXB2 enzyme immunoassay kit (manufactured by Cayman Chemical Company). The release ratio (%) of TXB2 from the eosinophils was determined by the following formula: release ratio (%) of TXB2=[(average value of test compound administration group−average value of negative control group)/(average value of positive control group−average value of negative control group)]×100
As used herein, the positive control group means a group to which stimulation with LTB4 was applied but the same volume of a medium was given instead of the test compound, and the negative control group means a group to which stimulation with LTB4 was not applied, the same volume of a medium was given instead of LTB4, and the same volume of a medium was given instead of the test compound. When the release ratio of TXB2 is smaller than 0, it means that the measured TXB2 concentration was lower than that of the negative control group. When the TXB2 concentration in the sample was the measurement limit or less, N.D. is indicated.

The structures appear in SMILES notation.

As a reminder, the melting point is the temperature, or range, at which the solid turns liquid.

`CCN(CC)C(=O)/C=C(\C)c1ccc(OCCCC(=O)O)c2oc(/C(C)=C/C(=O)O)cc12` [Example 2, (E)-3-[7-(3-carboxypropoxy)-4-(2-diethylcarbamoyl-1-methylvinyl)benzofuran-2-yl]-2-butenoic acid] returned a melting point of 199.5 to 201.9 °C. In data set [1], the “Amount of TXB2 release (%)” value turned out to be 5.77%.

Molecule `CCN(CC)C(=O)/C=C(\C)c1ccc(OCC(=O)c2ccc3c(c2)OCO3)c2oc(C(C)=O)cc12` [Example 13, (E)-3-[2-acetyl-7-(2-benzo[1,3]dioxol-5-yloxoethoxy)benzofuran-4-yl]-N,N-diethyl-2-butenamide] returned a melting point of 142 to 144 °C. Further, the “Amount of TXB2 release (%)” value in data set [1] came out at 31.8%. For `CCOC(=O)c1oc2ccccc2c1NC(=O)/C=C/c1ccccc1` [Example 119, Ethyl (E)-3-(3-phenylacryloylamino)benzofurane-2-carboxylate], in that order: 162.4 to 163.8 °C and 9.8%. For `CC(NC(=O)/C=C/c1ccccc1)c1cc2cccc(OCCCCl)c2o1` (centres unmarked) [Example 131, (E)-N-{1-[7-(3-chloropropoxy)benzofuran-2-yl]ethyl}-3-phenylacrylamide], in that order: 132.2 to 139.7 °C and 2.14%. In the same order, the values of `C/C=C/C(=O)Nc1c(C#N)oc2ccc(Br)cc12` [Example 117, (E)-N-(5-bromo-2-cyanobenzofuran-3-yl)-2-butenamide] are 206.5 to 208.2 °C and 54.95%. In the case of `CCNS(=O)(=O)c1ccc(OCCCC(=O)OCC)c2oc(/C(C)=C\C(=O)N(CC)CC)cc12` [Example 48, Ethyl (Z)-4-[2-(2-diethylcarbamoyl-1-methylvinyl)-4-ethylsulfamoylbenzofuran-7-yloxy]butyrate], in data set [1], the “Amount of TXB2 release (%)” value is reported as 53.91%. Consider `CCN(CC)C(=O)/C=C(/C)c1cc2cccc(OC(C)C)c2o1` [Example 34, (Z)-3-(7-isopropoxybenzofuran-2-yl)-N,N-diethyl-2-butenamide], for which the “Amount of TXB2 release (%)” value in data set [1] is given as −0.063%. With `CCOC(=O)CCCOc1ccc(/C(C)=C/C(=O)N(CC)CC)c2cc(C(C)=O)oc12` [Example 14, Ethyl (E)-4-[2-acetyl-4-(2-diethylcarbamoyl-1-methylvinyl)benzofuran-7-yloxy]butyrate], the “Amount of TXB2 release (%)” value in data set [1] is recorded as 44.81%. For the molecule `CCOC(=O)CCCOc1ccc(Br)c2cc(/C(C)=C/C(=O)N(CC)CC)oc12` [Example 35], the “Amount of TXB2 release (%)” value in data set [1] amounted to 1.02%. Same read-out and setting: for `CCN(CC)C(=O)/C=C(\C)c1cc2cccc(OC(c3ccccc3)c3ccccc3)c2o1` [Example 37, (E)-3-(7-benzhydryloxybenzofuran-2-yl)-N,N-diethyl-2-butenamide] the value was 15.69%.

For the molecule `COc1ccc(CCNC(=O)/C=C(\C)c2ccc(OC(C)c3ccccc3)c3oc(C(C)=O)cc23)cc1OC` (stereo not drawn) [Example 8, (E)-3-[2-acetyl-7-(l-phenylethoxy)benzofuran-4-yl]-N-[2-(3,4-dimethoxyphenyl)ethyl]-2-butenamide], in data set [1], the “Amount of TXB2 release (%)” value stood at 41.73%.

Consider `CC(=CC(=O)N1CCOCC1)c1cc2cccc(OC(c3ccccc3)c3ccccc3)c2o1` (stereo in doubt) [Example 42, (E)-3-(7-benzhydryloxybenzofuran-2-yl)-1-morpholino-2-buten-1-one], for which the “Amount of TXB2 release (%)” value in data set [1] is reported as 13.83%.

In the case of `CC(=O)c1oc2ccc(/C(C)=C/C(=O)N3CCN(c4ccccc4)CC3)cc2c1N` [Example 18, (E)-3-(2-acetyl-3-aminobenzofuran-5-yl)-1-(4-phenylpiperazin-1-yl)-2-buten-1-one], the “Amount of TXB2 release (%)” value in data set [1] was 53.91%.

On to `COc1ccc(CCNC(=O)/C=C(\C)c2ccc3oc(C(C)=O)c(NC(=O)c4cnoc4C)c3c2)cc1OC` [Example 72, (E)-N-(2-acetyl-5-(2-[2-(3,4-dimethoxyphenyl)ethylcarbamoyl]-1-methylvinyl)benzofuran-3-yl)-5-methylisoxazole-4-carboxamide], for which the “Amount of TXB2 release (%)” value in data set [1] turned out to be 84.46%. Take `C/C(O)=C(\C#N)C(=O)Nc1c(C(=O)/C=C/c2ccccc2)oc2ccc(Br)cc12` [Example 174, 2-cyano-3-hydroxy-(Z)-2-butenoic acid [5-bromo-2-((E)-3-phenylacryloyl)benzofuran-3-yl]amide]: the melting point was in the range of 261.5 to 262.8 °C. Same read-out and setting: under `COc1cccc2c(NC(=O)CCCl)c(C(C)=O)oc12` [Example 204, N-(2-acetyl-7-methoxybenzofuran-3-yl)-3-chloropropionamide] stands 169.1 to 170.2 °C. The same measure, in the same setting: under `CN(C)/C=C/C(=O)c1oc2ccc(Br)cc2c1NC(=O)/C=C/c1ccccc1` [Example 176, (E,E)-N-[5-bromo-2-(3-dimethylaminoacryloyl)-benzofuran-3-yl]-3-phenylacrylamide] stands 248 °C. In turn, `N#CCC(=O)Nc1c(C(=O)c2ccc(Cl)cc2)oc2ccc(Br)cc12` [Example 197, N-[5-bromo-2-(4-chlorobenzoyl)benzofuran-3-yl]-2-cyanoacetamide] showed a melting point of 245.4 to 249.5 °C. In turn, `CCN(CC)C(=O)/C=C(\C)c1ccc2oc(C(=O)Nc3cccc(OC)c3)c(NC(=O)/C(C#N)=C(/C)O)c2c1` [Example 189, 3-(2-cyano-3-hydroxy-(Z)-2-butenoylamino)-5-((E)-2-diethylcarbamoyl-1-methylvinyl)-benzofurane-2-carboxylic acid(3-methoxyphenyl)amide] came in with a melting point of 172 to 174 °C.

With `Cc1oncc1C(=O)Nc1c(C#N)oc2ccccc12` [Example 86, N-(2-cyanobenzofuran-3-yl)-5-methylisoxazole-4-carboxamide], the melting point was 227.3 to 230.4 °C. The same measure, in the same setting: under `COc1ccc(CCNC(=O)/C=C(\C)c2ccc3oc(C(C)=O)c(NC(=O)/C(C#N)=C(/C)O)c3c2)cc1OC` [Example 103, N-(2-acetyl-5-{(E)-2-[2-(3,4-dimethoxyphenyl)ethylcarbamoyl]-1-methylvinyl}benzofuran-3-yl)-2-cyano-3-hydroxy-(Z)-2-butenamide] stands 176.7 to 179.7 °C; under `Cc1nc(-c2cc3cc(Br)ccc3o2)cs1` [Example 216, 4-(5-bromobenzofuran-2-yl)-2-methylthiazole], 167.4 to 167.9 °C. Take `COc1ccc(/C=C/C(=O)c2oc3ccc(Br)cc3c2NC(=O)CCNCc2ccccc2)cc1` [Example 203, (E)-3-benzylamino-N-{5-bromo-2-[3-(4-methoxyphenyl)acryloyl]benzofuran-3-yl}propionamide]: the melting point is 123.8 to 126.5 °C.

In the case of `CCNS(=O)(=O)c1ccc(OCCCC(=O)O)c2oc(C(C)NC(=O)/C(C#N)=C(\C)O)cc12` (centres unmarked) [Example 129, (E)-4-{2-[1-(2-cyano-3-hydroxy-2-butenoylamino)ethyl]-4-ethylsulfamoylbenzofuran-7-yloxy}butyric acid], the melting point is 169.3 to 170.2 °C. Still for that read-out and setting: under `COc1ccc(CCNC(=O)/C=C(\C)c2ccc3oc(C(=O)c4ccc(C#N)cc4)c(NC(=O)c4cnoc4C)c3c2)cc1OC` [Example 90, (E)-N-(2-(4-cyanobenzoyl)-5-{2-[2-(3,4-dimethoxyphenyl)ethylcarbamoyl]-1-methylvinyl}benzofuran-3-yl)-5-methylisoxazole-4-carboxamide] stands 162.6 to 165.5 °C; under `CCOC(=O)c1oc2ccc(Br)cc2c1NC(=O)c1cnoc1C` [Example 67, Ethyl 5-bromo-3-[(5-methylisoxazole-4-carbonyl)amino]benzofurane-2-carboxylate], 170 to 172.8 °C. `COc1cccc(NC(=O)c2oc3ccc(Br)cc3c2NC(=O)/C(C#N)=C(/C)O)c1` [Example 188, (Z)-5-bromo-3-(2-cyano-3-hydroxy-2-butenoylamino)benzofurane-2-carboxylic acid (3-methoxyphenyl)amide] yielded a melting point of 234.5 to 241.5 °C. On the same count and under the same terms, under `COc1ccc(CCNC(=O)/C=C(\C)c2cc3cccc(OC(c4ccccc4)c4ccccc4)c3o2)cc1OC` [Example 47, (E)-3-(7-benzhydryloxybenzofuran-2-yl)-N-[2-(3,4-dimethoxyphenyl)ethyl]-2-butenamide] stands 70.8 to 73.5 °C. On the same count and under the same terms, under `Cc1oncc1C(=O)Nc1c(C(=O)c2ccc(C#N)cc2)oc2ccc(Br)cc12` [Example 73, N-[5-bromo-2-(4-cyanobenzoyl)benzofuran-3-yl]-5-methylisoxazole-4-carboxamide] stands 236.3 to 238.9 °C; under `CC(=O)c1oc2ccc(C#N)cc2c1NC(=O)/C(C#N)=C(/C)O` [Example 93, (Z)-N-(2-acetyl-5-cyanobenzofuran-3-yl)-2-cyano-3-hydroxy-2-butenamide], 216 to 218 °C.

Source of the values: patent US7638540B2, “Benzofuran compound and medicinal composition containing the same” (The New Industry Research Organization, priority 2003, dated 2009).
